The values below come from ChEMBL document CHEMBL1201862, “PubChem BioAssay data set” (2004).

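Each compound was tested at five concentrations against cells in 96-well plates for 48 hours. GI50 = concentration required for 50% inhibition of growth.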 The source made the active and inactive calls. Cut-off read from the data, not from the text of the source: active = GI50 up to about 1.1 µM and inactive = higher.

Some test systems named below: NCI-H460; T47D; HL-60; SNB-75; A549; U-251; SK-OV-3; RXF 393; OVCAR-8; SK-MEL-28; MDA-MB-231; MCF7; SK-MEL-5; MDA-MB-435; SW-620; DU-145; ACHN; UO-31; Hs-578T; PC-3.
Holding throughout (test): NCI-60 cell line screen, 48 h

Take `C=C(C)C(O)CCC1(C)C=Cc2c(c(C)cc3c2[nH]c2ccccc23)O1` (stereo not given): the GI50 in the test on NCI-H460 is 5.42 µM (inactive); in the test with T47D, 7.83 µM (inactive); in the test with HL-60, 6.68 µM (inactive); in the test on SNB-75, 3.3 µM (inactive); in the test on A549, 7.4 µM (inactive); in the test on U-251, 5.01 µM (inactive). The GI50 was 23.3 µM (inactive) in the test on SK-OV-3; 0.245 µM (active) in the test with RXF 393; 9.08 µM (inactive) in the test on OVCAR-8; 16.7 µM (inactive) with SK-MEL-28; 3.49 µM (inactive) in the test on MDA-MB-231; 12.3 µM (inactive) in the test on MCF7. For the same compound, the GI50 in the test with SK-MEL-5 is 7.62 µM (inactive); with MDA-MB-435, 8.41 µM (inactive); in the test on SW-620, 4.48 µM (inactive); in the test on DU-145 it was 12.6 µM (inactive); in the test on ACHN, 4.86 µM (inactive); in the test with UO-31 it was 6.87 µM (inactive). For the same compound, the GI50 was 3.17 µM (inactive) in the test on Hs-578T and 6.55 µM (inactive) in the test with PC-3.
As to `Cc1cc(C)c2c(=O)n(CC(O)CN3CCN(CCOCCO)CC3)sc2n1` (stereo not given), the GI50 in the test with NCI-H460 was 20.2 µM (inactive); with T47D, 19.1 µM (inactive); in the test with HL-60, 20.5 µM (inactive); in the test with SNB-75 it was 1.65 µM (inactive); in the test on A549, 32.4 µM (inactive); in the test on U-251, 18.1 µM (inactive). For the same compound, the GI50 with SK-OV-3 was 26.4 µM (inactive); with RXF 393, 4.68 µM (inactive); in the test on OVCAR-8 it was 19.9 µM (inactive); in the test with SK-MEL-28, 17.2 µM (inactive); with MDA-MB-231, 19.1 µM (inactive); in the test on MCF7, 18.3 µM (inactive). For the same compound, the GI50 in the test on SK-MEL-5 was 15.1 µM (inactive); with MDA-MB-435, 17.4 µM (inactive); in the test with SW-620 it was 25.6 µM (inactive); with DU-145, 30.2 µM (inactive); in the test on ACHN, 20 µM (inactive); in the test on UO-31, 20.7 µM (inactive). Moreover, the GI50 in the test on Hs-578T is 28.5 µM (inactive); in the test with PC-3, 18.7 µM (inactive).
With `O=c1c2ccccc2nc(Nc2cccc(Cl)c2)n1/N=C/C=C/c1ccccc1`, the GI50 in the test on NCI-H460 was 48.2 µM (inactive); with T47D, 64.9 µM (inactive); in the test with HL-60 it was > 100 µM (inactive); in the test on SNB-75 it was 45.4 µM (inactive); with A549 it was 75.3 µM (inactive); in the test on U-251, 28.8 µM (inactive). The GI50 in the test with SK-OV-3 was 70 µM (inactive); with RXF 393 it was > 100 µM (inactive); in the test with OVCAR-8, 39.2 µM (inactive); in the test on SK-MEL-28, > 100 µM (inactive); in the test with MDA-MB-231 it was 71 µM (inactive); with MCF7, 26.3 µM (inactive). Besides, the GI50 is 89.3 µM (inactive) in the test with SK-MEL-5; > 100 µM (inactive) in the test on MDA-MB-435; 51.5 µM (inactive) in the test with SW-620; > 100 µM (inactive) in the test with DU-145; 50.7 µM (inactive) with ACHN; > 100 µM (inactive) in the test on UO-31. Moreover, the GI50 in the test with Hs-578T was 62.8 µM (inactive); in the test on PC-3, 33.7 µM (inactive).
Consider `C[N+]1(CCN=C=NC2CCCCC2)CCOCC1`, for which the GI50 in the test on NCI-H460, with T47D, in the test on HL-60, in the test with SNB-75, in the test on A549 and with U-251 was > 100 µM (inactive) throughout. In addition, the GI50 in the test with SK-OV-3, in the test with RXF 393, with OVCAR-8, in the test with SK-MEL-28, with MDA-MB-231 and in the test with MCF7 was > 100 µM (inactive) in each case. The GI50 in the test with SK-MEL-5, with MDA-MB-435, in the test with SW-620, in the test on DU-145, with ACHN and in the test with UO-31 was > 100 µM (inactive) in each case. Moreover, the GI50 in the test on Hs-578T and in the test on PC-3 was > 100 µM (inactive) in each case.
